Target: T1, AR (Homo sapiens, UniProt P10275, T878A)
T1 sequence (P10275 1-920 T878A): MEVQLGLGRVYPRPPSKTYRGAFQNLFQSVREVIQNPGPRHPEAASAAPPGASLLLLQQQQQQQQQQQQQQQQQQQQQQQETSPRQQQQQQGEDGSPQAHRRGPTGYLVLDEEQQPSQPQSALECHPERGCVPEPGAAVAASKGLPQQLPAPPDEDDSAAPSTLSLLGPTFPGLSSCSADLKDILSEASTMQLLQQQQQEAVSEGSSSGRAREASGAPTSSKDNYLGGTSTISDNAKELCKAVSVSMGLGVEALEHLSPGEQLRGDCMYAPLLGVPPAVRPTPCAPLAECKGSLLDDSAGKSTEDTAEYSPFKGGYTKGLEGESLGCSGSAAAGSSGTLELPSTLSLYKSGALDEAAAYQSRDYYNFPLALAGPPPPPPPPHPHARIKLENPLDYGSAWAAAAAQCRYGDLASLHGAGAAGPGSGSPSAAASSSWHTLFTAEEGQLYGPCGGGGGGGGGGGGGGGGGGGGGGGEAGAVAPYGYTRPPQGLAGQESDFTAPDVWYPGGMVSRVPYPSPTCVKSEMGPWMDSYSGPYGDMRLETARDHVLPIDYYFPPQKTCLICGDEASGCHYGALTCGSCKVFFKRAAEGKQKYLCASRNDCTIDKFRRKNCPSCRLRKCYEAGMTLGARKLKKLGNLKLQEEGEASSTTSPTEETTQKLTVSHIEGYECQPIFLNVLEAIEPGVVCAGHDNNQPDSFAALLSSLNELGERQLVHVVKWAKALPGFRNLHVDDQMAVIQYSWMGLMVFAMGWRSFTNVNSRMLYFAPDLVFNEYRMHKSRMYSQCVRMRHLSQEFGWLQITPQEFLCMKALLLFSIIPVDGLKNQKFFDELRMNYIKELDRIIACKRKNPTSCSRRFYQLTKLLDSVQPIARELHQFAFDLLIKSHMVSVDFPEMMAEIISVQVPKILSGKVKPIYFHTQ
Assay: Effects of compounds on AR expression in LNCaP cells (ELISA, DC50)
Assay type: cell-based
Set-up: Measurement of the Effects of Drugs on the Expression of AR in Cells by ELISA Method; endogenous in cells; host or cells: LNCaP
Conditions: 24 hours of drug treatment, AR by ELISA
Protocol: Activity Assay Example 1: Effects of Compounds on AR Expression in LNCaP Cells
1. Cell Line and Cell Culture
Human prostate cancer cells LNCaP (Shanghai Chinese Academy of Sciences Cell Bank). LNCaP was cultured in 1640 medium containing 10% fetal bovine serum. The cells grow in clusters, with weak adhesion to the bottom of the culture flask, slow proliferation, with a multiplication time of 72 h. The cells are closely adhered to each other and need to be digested with 0.05% trypsin containing 0.025% EDTA. The cells were passaged every 3 days. The cells were cultured at 37° C. and 5% CO2 in a humidified incubator
2. Cell plating: The supernatant was discarded, and the Lncap cells in the logarithmic growth phase were taken, washed with PBS once, and added with appropriate 0.05% trypsin digestion solution to be fully digested into single cell suspension, and centrifuged, resuspended and counted to make the number of cells about 15,000 per well, then inoculated in a 96-well plate, placed at 37° C., 5% CO2 and cultured overnight for 24 h.
3. Preparation and Addition of Compound Solutions
About 2 mg of each compound was weighed and dissolved in DMSO to make the stock solution with a concentration of 10 mmol/L. Dilution process (final concentration dilution: 2, 0.667, 0.222, 0.074, 0.0245, 0.008, 0.003, 0.001, 0.0003, 0.0001 μmol/L): 10 centrifuge tubes with a volume of 1.5 mL were taken and numbered 1, 2, 3, 4, 5, 6, 7, 8, 9, and 10, 80 μL DMSO was added to tube No. 1, and 60 μL DMSO was added to tubes No. 2 to No. 10, 20 μL of the stock solution was pipetted to tube No. 1 and mixed well; 30 μL was pipetted from tube No. 1 into tube No. 2 and mixed well. 30 μL was pipetted from tube No. 2 into tube No. 3 and mixed well, and so forth, to obtain samples No. 4-10, and to obtain working solutions of compounds of different concentrations respectively. 2 μL was pipetted from the above-mentioned tubes No. 1-10 into each corresponding sterile deep-well plates, added with 198 μL of culture medium, and mixed well. 11 ul was added to each well of the 96-well cell plate cultured overnight to obtain the corresponding desired concentrations (2, 0.667, 0.222, 0.074, 0.0245, 0.008, 0.003, 0.001, 0.0003, 0.0001 μmol/L).
4. Measurement of the Effects of Drugs on the Expression of AR in Cells by ELISA Method
After 24 hours of drug treatment, the supernatant was removed, and 200 μL of PBS was added to wash cells, and then the supernatant was removed, and 100 μL of cell lysate was added to lyse cells on ice for 20 min, then the cell lysate was centrifuged at 4000 rpm for 20 min at 4° C. and the supernatant was taken for later use. The measurement steps of the supernatant were according to the ELISA kit instructions:
4.1 The slats required for the test were taken out from the sealed bag that has been equilibrated to room temperature. Please put the unused slats and desiccant back into the aluminum foil bag and compress the self-sealing strip, seal the bag, and store at 4° C.
4.2 Standards and sample diluents were added to blank wells, and different concentrations of standards (10 ul/well) and sample diluents (90 ul/well) were added to the remaining corresponding wells, and the reaction wells were sealed with sealing tape, and refrigerated at 4° C. overnight.
4.3 Primary antibody was diluted with dilution buffer to the corresponding concentration and added to each well in 100 ul/well. The reaction wells were sealed with sealing tape and incubated at 37° C. for 60 min.
4.4 Secondary antibody was diluted with dilution buffer to the corresponding concentration and added to each well in 100 ul/well. The reaction wells were sealed with sealing tape and incubated at 37° C. for 30 min.
4.5 The reaction wells were added with 100 ul/well of substrate (TMB) and incubated at room temperature for 30 min.
4.6 The reaction wells were added with 100 ul/well of stop solution, mixed well and then the OD450 value was measured with a microplate reader. […]

Compound: CC(C)(C)[C@H](NC(=O)COCCCCOc1ccc(-c2ncc(N3C(=S)N(c4ccc(C#N)c(C(F)(F)F)c4F)C(=O)C3(C)C)cc2F)cc1F)C(=O)N1C[C@H](O)C[C@H]1C(=O)NCc1ccccc1 [Compound A120]
- DC50: 0.216 µM

Compound: CC(C)(C)[C@H](NC(=O)COCCCCOc1ccc(-c2ccc(N3C(=S)N(c4ccc(C#N)c(C(F)(F)F)c4F)C(=O)C3(C)C)cn2)cc1C(F)(F)F)C(=O)N1C[C@H](O)C[C@H]1C(=O)NCc1ccc(C(N)=O)cc1 [Compound A121]
- DC50: 0.336 µM

Compound: CC(C)(C)[C@H](NC(=O)COCCCCOc1ccc(-c2ccc(N3C(=S)N(c4ccc(C#N)c(C(F)(F)F)c4F)C(=O)C3(C)C)cn2)cc1C(F)(F)F)C(=O)N1C[C@H](O)C[C@H]1C(=O)NCc1ccccc1 [Compound A122]
- DC50: 0.155 µM

Compound: Cc1ncsc1-c1ccc(CNC(=O)[C@@H]2C[C@@H](O)CN2C(=O)[C@@H](NC(=O)CCCCCC#Cc2ncc(N3C(=S)N(c4ccc(C#N)c(C(F)(F)F)c4F)C(=O)C3(C)C)cc2F)C(C)(C)C)cc1 [Compound A125]
- DC50: > 2 µM

Compound: CC(C)(C)[C@H](NC(=O)COCCCCOc1ccc(-c2ccc(N3C(=S)N(c4ccc(C#N)c(C(F)(F)F)c4F)C(=O)C3(C)C)cn2)cn1)C(=O)N1C[C@H](O)C[C@H]1C(=O)NCc1ccc(C(N)=O)cc1 [Compound A127]
- DC50: 0.0893 µM

Compound: CC(C)(C)[C@H](NC(=O)COCCCCOc1ccc(-c2ccc(N3C(=S)N(c4ccc(C#N)c(C(F)(F)F)c4F)C(=O)C3(C)C)cn2)cn1)C(=O)N1C[C@H](O)C[C@H]1C(=O)NCc1ccccc1 [Compound A128]
- DC50: 0.124 µM

Compound: CC(C)(C)[C@H](NC(=O)COCCOc1ccc(-c2ncc(N3C(=S)N(c4ccc(C#N)c(C(F)(F)F)c4F)C(=O)C3(C)C)cc2F)cc1F)C(=O)N1C[C@H](O)C[C@H]1C(=O)NCc1ccc(C(N)=O)cc1 [Compound A129]
- DC50: 0.0679 µM

Compound: CC(C)(C)[C@H](NC(=O)COCCOc1ccc(-c2ncc(N3C(=S)N(c4ccc(C#N)c(C(F)(F)F)c4F)C(=O)C3(C)C)cc2F)cc1F)C(=O)N1C[C@H](O)C[C@H]1C(=O)NCc1ccccc1 [Compound A130]
- DC50: 0.131 µM

Compound: CC(C)(C)[C@H](NC(=O)COCCCCOc1ccc(-c2ncc(N3C(=S)N(c4ccc(C#N)c(C(F)(F)F)c4F)C(=O)C3(C)C)cc2F)c(C(F)(F)F)c1)C(=O)N1C[C@H](O)C[C@H]1C(=O)NCc1ccc(C(N)=O)cc1 [Compound A131]
- DC50: 0.0348 µM

Compound: CC(C)(C)[C@H](NC(=O)COCCCCOc1ccc(-c2ncc(N3C(=S)N(c4ccc(C#N)c(C(F)(F)F)c4F)C(=O)C3(C)C)cc2F)c(C(F)(F)F)c1)C(=O)N1C[C@H](O)C[C@H]1C(=O)NCc1ccccc1 [Compound A132]
- DC50: 0.161 µM

Compound: Cc1ncsc1-c1ccc(CNC(=O)[C@@H]2C[C@@H](O)CN2C(=O)[C@@H](NC(=O)COCCCCN2CC=C(c3ccc(N4C(=S)N(c5ccc(C#N)c(C(F)(F)F)c5F)C(=O)C4(C)C)cn3)CC2)C(C)(C)C)cc1 [Compound A135]
- DC50: 1.54 µM

Compound: Cc1ncsc1-c1ccc(CNC(=O)[C@@H]2C[C@@H](O)CN2C(=O)[C@@H](NC(=O)[C@H]2CC[C@H](CNC(=O)CCCc3ccc(N4C(=S)N(c5ccc(C#N)c(C(F)(F)F)c5F)C(=O)C4(C)C)cn3)CC2)C(C)(C)C)cc1 [Compound A140]
- DC50: 1.5 µM

Compound: Cc1ncsc1-c1ccc(CNC(=O)[C@@H]2C[C@@H](O)CN2C(=O)[C@@H](NC(=O)COCCCCN2CCC(c3ccc(N4C(=S)N(c5ccc(C#N)c(C(F)(F)F)c5F)C(=O)C4(C)C)cn3)CC2)C(C)(C)C)cc1 [Compound A141]
- DC50: > 2 µM

Compound: Cc1ncsc1-c1ccc(CNC(=O)[C@@H]2C[C@@H](O)CN2C(=O)[C@@H]2CCCN2C(=O)COCCCCOc2ccc(-c3ncc(N4C(=S)N(c5ccc(C#N)c(C(F)(F)F)c5F)C(=O)C4(C)C)cc3F)cc2F)cc1 [Compound A142]
- DC50: > 2 µM

Compound: Cc1ncsc1-c1ccc([C@H](C)NC(=O)[C@@H]2C[C@@H](O)CN2C(=O)[C@@H](NC(=O)COCC(F)C(F)COc2c(F)cc(-c3ncc(N4C(=S)N(c5ccc(C#N)c(C(F)(F)F)c5F)C(=O)C4(C)C)cc3F)cc2F)C(C)(C)C)cc1 (stereo partly shown) [Compound A144]
- DC50: 0.635 µM

Compound: CC(=O)O[C@@H]1C[C@@H](C(=O)NCc2ccc(-c3scnc3C)cc2)N(C(=O)[C@@H](NC(=O)COCCCCOc2ccc(-c3ncc(N4C(=S)N(c5ccc(C#N)c(C(F)(F)F)c5F)C(=O)C4(C)C)cc3F)c(C(F)(F)F)c2)C(C)(C)C)C1 [Compound A146]
- DC50: 0.259 µM

Compound: Cc1ncsc1-c1ccc(CNC(=O)[C@@H]2C[C@@H](O)CN2C(=O)[C@@H](NC(=O)COCCC(F)COc2ccc(-c3ncc(N4C(=S)N(c5ccc(C#N)c(C(F)(F)F)c5F)C(=O)C4(C)C)cc3F)cc2F)C(C)(C)C)cc1 (stereo partly shown) [Compound A147]
- DC50: 0.0849 µM

Compound: Cc1ncsc1-c1ccc([C@H](C)NC(=O)[C@@H]2C[C@@H](O)CN2C(=O)[C@@H](NC(=O)COCCC(F)COc2c(F)cc(-c3ncc(N4C(=S)N(c5ccc(C#N)c(C(F)(F)F)c5F)C(=O)C4(C)C)cc3F)cc2F)C(C)(C)C)cc1 (stereo partly shown) [Compound A149]
- DC50: 0.111 µM

Compound: Cc1ncsc1-c1ccc(CNC(=O)[C@@H]2C[C@@H](O)CN2C(=O)[C@@H](NC(=O)COCC(F)C(F)COc2ccc(-c3ncc(N4C(=S)N(c5ccc(C#N)c(C(F)(F)F)c5F)C(=O)C4(C)C)cc3F)cc2F)C(C)(C)C)cc1 (stereo partly shown) [Compound A150]
- DC50: 0.0906 µM

Compound: CC(=O)O[C@@H]1C[C@@H](C(=O)NCc2ccc(-c3scnc3C)cc2)N(C(=O)[C@@H](NC(=O)COCCCCOc2c(F)cc(-c3ncc(N4C(=S)N(c5ccc(C#N)c(C(F)(F)F)c5F)C(=O)C4(C)C)cc3F)cc2F)C(C)(C)C)C1 [Compound A152]
- DC50: 0.167 µM

Compound: Cc1ncsc1-c1ccc(CNC(=O)[C@@H]2C[C@@H](O)CN2C(=O)[C@@H](NC(=O)COCC(F)C(F)COc2ccc(-c3ncc(N4C(=S)N(c5ccc(C#N)c(C(F)(F)F)c5F)C(=O)C4(C)C)cc3F)c(C(F)(F)F)c2)C(C)(C)C)cc1 (stereo partly shown) [Compound A154]
- DC50: 0.0376 µM

Compound: Cc1ncsc1-c1ccc(CNC(=O)[C@@H]2C[C@@H](O)CN2C(=O)[C@@H](NC(=O)COCC(F)CCOc2ccc(-c3ncc(N4C(=S)N(c5ccc(C#N)c(C(F)(F)F)c5F)C(=O)C4(C)C)cc3F)cc2F)C(C)(C)C)cc1 (stereo partly shown) [Compound A159]
- DC50: 0.168 µM

From patent publication US12606552B2, “Bifunctional compound, preparation method therefor, and use thereof” (SUZHOU KINTOR PHARMACEUTICALS, INC., priority 2020, dated 2026)
